# According to PMC10202051, “Molecular basis of differential HLA class I-restricted T cell recognition of a highly networked HIV peptide” (Nature Communications, 2023):
# System: autologous B cells lysed by CTL Clone 3
# Assay: Chromium release assay with QW9-B53 specific CTL clone C3
# Type: cell-based, human
# Conditions: effector/target 1:1, technical replicate
sequence,measurement,setting,value
QATQEVKNW [QW9_S3T],lysis of autologous B cells,experiment-1,6.79
same,lysis of autologous B cells,experiment-2,6.64
same,lysis of autologous B cells,experiment-3,6.63
same,lysis of autologous B cells,experiment-4,6.38
same,lysis of autologous B cells,experiment-5,6.72
same,lysis of autologous B cells,experiment-6,7.02
same,lysis of autologous B cells,experiment-7,6.68
same,lysis of autologous B cells,experiment-8,6.3
